Test results reported in article PMC6768889 (Cancer Chemotherapy and Pharmacology, 2019).
Values joined by “and” are separate entries in the source; they are usually repeats but may differ in a detail not shown here. Equal entries are not always repeated. Structures can show the parent of a compound that is named as a salt. Where two headings read alike, the source gives them in different places. One block for each compound: values may come before it.

Experiments:
[1] = cited from earlier work
[2] = Phase 1 drug–drug interaction study: plasma PK of quizartinib, AC886 and quizartinib + AC886 after a single 30-mg quizartinib tablet alone or with lansoprazole; type: in vivo, human; conditions: for Vd/F: read-out: Vz/F (CV%), geometric mean; for CL/F (CV%), geometric mean: quizartinib
Procedure: The tolerability and safety of quizartinib administered alone and in combination with lansoprazole were also assessed. The study was conducted in compliance with the Declaration of Helsinki and the International Conference on Harmonisation (ICH)/Good Clinical Practice as well as all applicable state, local, and federal regulations. The study protocol, amendments, and informed consent forms were reviewed and approved by the institutional review board. All subjects provided written informed consent before any study-related procedure took place.
Subjects were randomized into two groups: lansoprazole and quizartinib (lansoprazole + quizartinib; test group) and quizartinib alone (reference group). On days 1–5, subjects in the test group were administered 60-mg lansoprazole (2 × 30 mg oral delayed-released capsule) once daily in the morning before food. […] All study drugs were taken with approximately 240 mL of water.
Plasma concentrations were determined by BASi (West Lafayette, IN, USA) using a validated analytical method.
Samples were injected into an LC–MS/MS system (LC: Nexera System, Shimadzu Scientific Instruments, Columbia, MD, USA; MS: API 5500™, SCIEX, Framingham, MA, USA) using a PFP column (Phenomenex/Kinetex, Torrance, CA, USA) with a gradient ammonium formate/formic acid/acetonitrile/water mobile phase. […] For AC886 at the LLOQ, precision was 6.0% CV and accuracy was 0.2% bias across 14 runs; accuracy ranged from −7.9 to 10.6% bias within runs. For AC886 at the upper limit of quantitation, precision was 2.9% CV and accuracy was −1.4% bias across 14 runs; accuracy ranged from −6.4 to 4.6% bias within runs.
A sample size of 25 subjects per group was determined to yield a ≤ 10% relative standard error of the mean, based on the observed intersubject coefficient of variation (CV%) of approximately 60% for PK parameters in a previous drug–drug interaction study in healthy volunteers (data on file, Daiichi Sankyo, Inc., Basking Ridge, NJ, USA). Up to 32 subjects/group were planned to account for possible premature withdrawal. Descriptive statistics were used to summarize plasma concentrations and PK parameters of the PK analysis population. Safety parameters were summarized in the safety analysis population using descriptive statistics. All descriptive statistics were calculated using SAS® software version 9.3 (SAS Institute Inc., Cary, NC, USA). […] PK parameters were natural logarithm (ln)-transformed prior to analyses. The ln-transformed PK results were back-transformed by exponentiation to obtain the geometric least squares mean (LSM) for each treatment and calculate geometric LSM ratios for pairwise comparisons.

[3] = by treatment group
[4] = Safety: treatment-emergent adverse events, vital signs and laboratory tests in the phase 1 study; type: in vivo, human
Procedure: The safety analysis population consisted of all randomized subjects who received quizartinib or at least one dose of lansoprazole. Safety was assessed with physical examinations, vital signs, AE evaluations, 12-lead electrocardiograms (ECGs), and clinical laboratory tests (hematology, chemistry, and urinalysis). AEs were evaluated during the study according to the Medical Dictionary for Regulatory Activities version 17.1 and assessed for severity and relation to study drugs. Laboratory results were summarized based on National Cancer Institute Common Terminology Criteria for Adverse Events version 4.03.

gastric acid secretion = system: gastric acid secretion; design: method as in earlier work; conditions: cited from earlier work
[5] = In vitro solubility assessment; type: physicochemical
[6] = healthy subjects, single 30-mg quizartinib
[7] = quizartinib in plasma, single 30-mg quizartinib alone, n = 30
[8] = day 5, up to 8 h after quizartinib
[9] = all patients, quizartinib with/without lansoprazole, N = 63
[10] = all subjects, quizartinib with or without lansoprazole
[11] = by treatment group, safety population

Decrease in AUCinf (geometric LSM) for lansoprazole + quizartinib versus quizartinib alone [2, 6]: 4.7%
Decrease in AUClast (geometric LSM) for lansoprazole + quizartinib versus quizartinib alone [2, 6]: 6.0%
Decrease in Cmax (geometric LSM) for lansoprazole + quizartinib versus quizartinib alone [2, 6]: 13.9%
AUC(0-inf) ([2]; human, plasma, oral, 30 mg, quizartinib in plasma, quizartinib alone, n = 30, read-out: AUCinf, geometric LS mean (ANOVA)): 8.66 µg·h/mL
AUC(0-t) ([2]; human, plasma, oral, 30 mg, quizartinib in plasma, quizartinib alone, n = 30, read-out: AUClast, geometric LS mean (ANOVA)): 8.33 µg·h/mL
AUC(0-inf) ([2]; human, plasma, oral, 30 mg, quizartinib in plasma, single 30-mg quizartinib alone, n = 30, read-out: AUCinf (CV%), geometric mean): 8.66 µg·h/mL
AUC(0-t) ([2]; human, plasma, oral, 30 mg, quizartinib in plasma, single 30-mg quizartinib alone, n = 30, read-out: AUClast (CV%), geometric mean): 8.33 µg·h/mL
Vd/F ([2]; human, plasma, oral, 30 mg): 431 L
AUC(0-inf) ([2]; human, plasma, oral, quizartinib in plasma, lansoprazole 60 mg once daily + single 30-mg quizartinib, n = 31, read-out: AUCinf (CV%), geometric mean): 8.26 µg·h/mL
AUC(0-t) ([2]; human, plasma, oral, quizartinib in plasma, lansoprazole 60 mg once daily + single 30-mg quizartinib, n = 32, read-out: AUClast (CV%), geometric mean): 7.83 µg·h/mL
AUC(0-inf) ([2]; human, plasma, oral, quizartinib in plasma, lansoprazole + quizartinib, n = 31, read-out: AUCinf, geometric LS mean (ANOVA)): 8.26 µg·h/mL
AUC(0-t) ([2]; human, plasma, oral, quizartinib in plasma, lansoprazole + quizartinib, n = 32, read-out: AUClast, geometric LS mean (ANOVA)): 7.83 µg·h/mL
half-life ([2]; human, plasma, oral, read-out: Mean T1/2 (SD), arithmetic mean (converted)): 107 h
Tmax ([2]; human, plasma, oral, read-out: Median Tmax (min, max)): 3.5 h
Vd/F ([2]; human, plasma, oral): 479 L
Median Tmax (min, max) ([2]; quizartinib in plasma, healthy subjects, single 30-mg quizartinib tablet alone, fasted, n = 30): 4.0 (2.0, 8.0) h
Cmax, geometric LS mean (ANOVA) ([2]; quizartinib in plasma, quizartinib alone, n = 30): 0.1048 µg/mL
Cmax (CV%), geometric mean [2, 7]: 105 (16.3) ng/mL
Mean T1/2 (SD), arithmetic mean [2, 7]: 102.2 (29.0) h
CL/F (CV%), geometric mean ([2]; lansoprazole 60 mg once daily + single 30-mg quizartinib, n = 31): 3.2 L/h and 3.2 (46.4)^b L/h
CL/F (CV%), geometric mean ([2]; single 30-mg quizartinib alone, n = 30): 3.1 L/h and 3.1 (37.4) L/h
Compound: CC(C)(C)c1cc(NC(=O)Nc2ccc(-c3cn4c(n3)sc3cc(OCCN5CCOCC5)ccc34)cc2)no1 [Quizartinib, quizartinib]
half-life ([1]; estimated in AML patients, ref data on file, Daiichi Sankyo Inc., Basking Ridge, NJ, USA): 73 h
Time to maximum concentrations ([1]; healthy subjects and patients with AML, range 2–8 h): 4 h
Subjects with maximum QTcF value > 480 ms [3]: None
Maximum QTcF change from baseline in most subjects [3, 8]: ≤ 30 ms
Maximum QTcF value in most subjects [3, 8]: ≤ 450 ms
TEAE: Back pain [4, 9]: 2 (3.2) n (%)
TEAE: Constipation [4, 9]: 2 (3.2) n (%)
TEAE: Dermatitis [4, 9]: 1 (1.6) n (%)
TEAE: Diarrhea [4, 9]: 1 (1.6) n (%)
TEAE: Dizziness [4, 9]: 1 (1.6) n (%)
TEAE: Fatigue [4, 9]: 2 (3.2) n (%)
TEAE: Headache [4, 9]: 3 (4.8) n (%)
TEAE: Hypoacusis [4, 9]: 1 (1.6) n (%)
TEAE: Hypoesthesia [4, 9]: 1 (1.6) n (%)
TEAE: Muscle tightness [4, 9]: 2 (3.2) n (%)
TEAE: Musculoskeletal pain [4, 9]: 1 (1.6) n (%)
TEAE: Musculoskeletal stiffness [4, 9]: 1 (1.6) n (%)
TEAE: Nasal congestion [4, 9]: 1 (1.6) n (%)
TEAE: Nausea [4, 9]: 2 (3.2) n (%)
TEAE: Phlebotomy [4, 9]: 1 (1.6) n (%)
TEAE: Sneezing [4, 9]: 1 (1.6) n (%)
TEAE: Throat irritation [4, 9]: 1 (1.6) n (%)
TEAE: Upper respiratory tract infection [4, 9]: 5 (7.9) n (%)
TEAE: Vessel puncture site pain [4, 9]: 1 (1.6) n (%)
Abnormalities in vital signs, hematology, or clinical chemistry [4, 10]: No significant abnormalities
Severe or serious TEAEs [4, 10]: no severe or serious TEAEs
Subjects with TEAEs of mild severity among the 20 subjects who experienced a TEAE [4, 10]: 95%
Subjects with at least one quizartinib-related TEAE (nausea, diarrhea, dizziness, headache, fatigue) [4, 10]: Three
Subjects with at least one treatment-emergent AE (TEAE) following quizartinib treatment on day 5 ([4]; all subjects, quizartinib with or without lansoprazole, N = 63): 31.7%
TEAE: Back pain [4, 11]: 1 (3.3) n (%)
TEAE: Constipation [4, 11]: 1 (3.3) n (%)
TEAE: Dermatitis [4, 11]: 0 n (%)
TEAE: Diarrhea [4, 11]: 1 (3.3) n (%)
TEAE: Dizziness [4, 11]: 0 n (%)
TEAE: Fatigue [4, 11]: 1 (3.3) n (%)
TEAE: Headache [4, 11]: 3 (10.0) n (%)
TEAE: Hypoacusis [4, 11]: 0 n (%)
TEAE: Hypoesthesia [4, 11]: 0 n (%)
TEAE: Muscle tightness [4, 11]: 2 (6.7) n (%)
TEAE: Musculoskeletal pain [4, 11]: 1 (3.3) n (%)
TEAE: Musculoskeletal stiffness [4, 11]: 1 (3.3) n (%)
TEAE: Nasal congestion [4, 11]: 1 (3.3) n (%)
TEAE: Nausea [4, 11]: 1 (3.3) n (%)
TEAE: Phlebotomy [4, 11]: 0 n (%)
TEAE: Sneezing [4, 11]: 1 (3.3) n (%)
TEAE: Throat irritation [4, 11]: 1 (3.3) n (%)
TEAE: Upper respiratory tract infection [4, 11]: 2 (6.7) n (%)
TEAE: Vessel puncture site pain [4, 11]: 0 n (%)
TEAE: Dysmenorrhea ([4]; by treatment group, safety population, after database lock one event was found to be pre-existing): 1 (3.3) n (%)
Subjects with at least one treatment-emergent AE (TEAE) following quizartinib treatment on day 5 ([4]; by treatment group, quizartinib alone n = 30, lansoprazole + quizartinib n = 33): 30.0%
Overall safety and tolerability ([4]; healthy subjects, with or without lansoprazole): generally safe and well tolerated

Compound: Cc1c(OCC(F)(F)F)ccnc1C[S+]([O-])c1nc2ccccc2[nH]1 (centres unmarked) [Lansoprazole, lansoprazole]
Duration of inhibitory effect on gastric acid secretion (gastric acid secretion): over 24 h
Elimination half-life (gastric acid secretion): less than 2 h
Mean 24-h intragastric pH (gastric acid secretion; lansoprazole 30 mg once daily for 5 days, baseline 2.1): 4.9

pH dependence of solubility [5]: pH dependent
solubility ([5]; at physiological pH in the intestine): < 0.4 µg/mL
Compound: CC(C)(C)c1cc(NC(=O)Nc2ccc(-c3cn4c(n3)sc3cc(OCCN5CCOCC5)ccc34)cc2)no1 [quizartinib dihydrochloride]
